Measured values published in patent US8357117B2, “Device and method for delivering an agent into breast milk while breastfeeding” (Family Health International, priority 2008, dated 2013).

Test: release of SDS from dried SDS-dipped non-woven disk in 10 ml syringe, water gravity fed
Type: physicochemical
Conditions: non-woven dipped in 20% SDS solution, 3 mm thick disk, no excipients
Excerpt: It was an unexpected result that, without the use of any excipients, a non-woven material could be dipped into an SDS solution to achieve significant loading and release of SDS. Specifically, a piece of soft non-woven material was dipped in a 20% solution of SDS, then dried on a drying rack. After drying, the material was hard and stiff, and felt like a piece of cardboard. It appeared unlikely that the resulting material would even be permeable to water.

## CCCCCCCCCCCCOS(=O)(=O)[O-].[Na+] [SDS, sodium dodecyl sulphate]
  release of SDS into water: rapidly released
